Measured values reported in US10265310B2, “6-membered cyclic amines or lactames substituted with urea and phenyl” (GRÜNENTHAL GMBH, priority 2016, dated 2019).
pEC50: −log10 of the molar value.

Legend:
FPR1 = FPR1 (Homo sapiens (Human), UniProt P21462); experiment: Agonistic activity (calcium FLIPR) in hFPR1-Gα15-CHO cells; format: cell-based; conditions: FLIPR Calcium 5 dye fluorescence, agonistic response
How it was run: (§1)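 CHO cells expressing hFPR1-Gα15 or hFPR2-Aq were plated 18 hours, then loaded with Calcium 5 dye (pH 7.4, probenecid) for 30 minutes at 37° C. Compounds (final 10 μM to 100 pM, 11 half-log points) were added on FLIPR, with fluorescence followed for 5 minutes. EC50 came from the rise over basal relative to no-compound wells.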

FPR2 = FPR2 (Homo sapiens (Human), UniProt P25090); experiment: Agonistic activity (calcium FLIPR) in hFPR2-Aq-CHO cells; format: cell-based; conditions: FLIPR Calcium 5 dye fluorescence, agonistic response
FPR2, sequence (P25090 whole entry): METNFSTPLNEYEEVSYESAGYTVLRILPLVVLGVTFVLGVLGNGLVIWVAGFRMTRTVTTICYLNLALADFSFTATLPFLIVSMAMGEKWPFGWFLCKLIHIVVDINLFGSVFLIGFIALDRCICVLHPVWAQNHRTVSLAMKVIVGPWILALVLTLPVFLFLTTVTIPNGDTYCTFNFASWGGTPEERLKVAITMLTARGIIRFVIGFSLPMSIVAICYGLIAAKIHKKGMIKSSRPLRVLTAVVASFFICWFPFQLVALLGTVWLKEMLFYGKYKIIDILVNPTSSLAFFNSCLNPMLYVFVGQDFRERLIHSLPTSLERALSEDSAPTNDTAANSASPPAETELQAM
How it was run: as §1

FPR1, sequence (P21462 whole entry): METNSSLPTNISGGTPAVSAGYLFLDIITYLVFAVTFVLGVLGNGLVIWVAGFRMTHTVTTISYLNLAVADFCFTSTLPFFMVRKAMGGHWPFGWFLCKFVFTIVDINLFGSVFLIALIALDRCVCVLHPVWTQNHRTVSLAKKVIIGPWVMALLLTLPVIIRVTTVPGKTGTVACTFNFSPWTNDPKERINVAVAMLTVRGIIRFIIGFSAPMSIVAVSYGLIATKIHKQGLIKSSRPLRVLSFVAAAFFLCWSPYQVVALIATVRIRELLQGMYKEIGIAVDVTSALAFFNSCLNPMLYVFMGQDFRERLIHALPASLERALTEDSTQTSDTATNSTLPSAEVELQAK

SMILES	pEC50 (FPR1)	pEC50 (FPR2)
COc1cc(F)c([C@@H]2CCNC[C@H]2NC(=O)Nc2ccc(Br)cc2)c(F)c1 (racemic) [Example 8, rac-trans-1-(4-bromophenyl)-3-(4-(2,6-difluoro-4-methoxyphenyl)piperidin-3-yl)urea]	6.00 to 9.00	> 9.00
COc1cc(F)c(C2CCN(C(=O)C3CC3)CC2NC(=O)Nc2ccc(Cl)cc2)c(F)c1 (single isomer, unassigned; ent2) [Example 40, trans-ent2-1-(4-chlorophenyl)-3-(1-(cyclopropanecarbonyl)-4-(2,6-difluoro-4-methoxyphenyl)piperidin-3-yl)urea]	6.00 to 9.00	6.00 to 9.00
COc1ccc(C2CCNCC2NC(=O)Nc2ccc(Cl)cc2)c(F)c1 (single isomer, unassigned; ent2) [Example 46, ent2-1-(4-chlorophenyl)-3-(4-(2-fluoro-4-methoxyphenyl)piperidin-3-yl)urea]	6.00 to 9.00	6.00 to 9.00
COc1cc(F)c([C@@H]2CC(=O)NC[C@H]2NC(=O)Nc2cc(C)ns2)c(F)c1 (racemic) [Example 55, rac-trans-1-[4-(2,6-Difluoro-4-methoxy-phenyl)-6-oxo-piperidin-3-yl]-3-(3-methyl-isothiazol-5-yl)-urea]	6.00 to 9.00	6.00 to 9.00
COc1cc(F)c([C@@H]2CC(=O)N(CCO)C[C@H]2NC(=O)Nc2ccc(Cl)cc2)c(F)c1 (racemic) [Example 31, rac-trans-1-(4-chlorophenyl)-3-(4-(2,6-difluoro-4-methoxyphenyl)-1-(2-hydroxyethyl)-6-oxopiperidin-3-yl)urea]	6.00 to 9.00	> 9.00
O=C1CC(c2ccc(F)cc2F)C(NC(=O)Nc2ccc(Cl)cc2)CN1 (single isomer, unassigned; ent1) [Example 67, trans-ent1-1-(4-Chlorophenyl)-3-[4-(2,4-difluoro-phenyl)-6-oxo-piperidin-3-yl]-urea]	6.00 to 9.00	6.00 to 9.00
CCc1ccc([C@@H]2CC(=O)NC[C@H]2NC(=O)Nc2ccc(Cl)cc2)cc1 (racemic) [Example 73, rac-trans-1-(4-chlorophenyl)-3-(4-(4-ethylphenyl)-6-oxopiperidin-3-yl)urea]	6.00 to 9.00	6.00 to 9.00
COc1cc(F)c([C@@H]2CC(=O)NC[C@H]2NC(=O)Nc2ccc(Cl)c(F)c2)c(F)c1 (racemic) [Example 58, rac-trans-1-(4-Chloro-3-fluoro-phenyl)-3-[4-(2,6-difluoro-4-methoxy-phenyl)-6-oxo-piperidin-3-yl]-urea]	6.00 to 9.00	6.00 to 9.00

Results, then the compound that gave them:

pEC50 (FPR1)	pEC50 (FPR2)	SMILES
6.00 to 9.00	6.00 to 9.00	COc1ccc([C@@H]2CC(=O)N(C)C[C@H]2NC(=O)Nc2ccc(Cl)cc2)cc1 (stereo in doubt) [Example 11, trans-ent2-(4-chlorophenyl)-3-(4-(4-methoxyphenyl)-1-methyl-6-oxopiperidin-3-yl)urea]
6.00 to 9.00	6.00 to 9.00	O=C1CC(c2ccc(Cl)cc2)C(NC(=O)Nc2ccc(Cl)cc2)CN1 (single isomer, unassigned; ent1) [Example 91, trans-ent1-1-(4-chlorophenyl)-3-(4-(4-chlorophenyl)-6-oxopiperidin-3-yl)urea]
> 9.00	> 9.00	COc1ccc([C@H]2CC(=O)N(C)C[C@@H]2NC(=O)Nc2ccc(Cl)cc2)cc1 (stereo in doubt) [Example 10, trans-ent1-(4-chlorophenyl)-3-(4-(4-methoxyphenyl)-1-methyl-6-oxopiperidin-3-yl)urea]
6.00 to 9.00	6.00 to 9.00	O=C1C[C@@H](c2ccc(OC(F)F)cc2)[C@H](NC(=O)Nc2ccc(Cl)cc2)CN1 (racemic) [Example 74, rac-trans-1-(4-chlorophenyl)-3-(4-(4-(difluoromethoxy)phenyl)-6-oxopiperidin-3-yl)urea]
